Data reported in US20220177561A1, “Models and Methods Useful for the Treatment of Serrated Colorectal Cancer” (Sanford Burnham Prebys Medical Discovery Institute, priority 2018, published 2022).

Legend:
ZKO organoids = assay: Interferon response of PKCζ-deficient (ZKO) small intestine organoids (3D culture); assay type: cell-based, mouse; conditions: 3 μM for 24 hours then drug-free culture, qRT-PCR
Protocol: (§1) For generation of small intestine organoids, organoids were collected in ice-cold TrypLE solution (e.g., Life Technologies) to remove Matrigel, then pipetted 5 cycles and incubated 5 min at 37° C. to obtain single-cell suspension. Cells were washed twice in PBS 3% FBS and resuspended at room temperature with PBS with 100 μg/ml DNase I for 10 min before staining with anti-H-2Kb (clone AF6-88.5.5.3; eBioscience). For antigen presentation in MODE-K cells, cells were washed in PBS, trypsinized and wash with warm medium. Then, cells were resuspended and stained with anti-H-2Kk (clone 36-7-5; BioLegend) and anti-H-2Dk (clone 15-5-5; BD Pharmingen). Dead cells were excluded after 7-AAD staining. All flow cytometry experiments were performed on a BD LSRFortessa 14-colors analyzer at the Sanford Burnham Prebys Medical Discovery Institute Shared FACS Facility and flow cytometry data were analyzed using FlowJo software (Tree Star Inc.).
(§2) Intestinal epithelial cell (IEC) isolation was performed as described previously Llado et al., Repression of Intestinal Stem Cell Function and Tumorigenesis through Direct Phosphorylation of β-catenin and Yap by PKCζ. Cell Reports (2015) 10, 740-754, with some modification. […] Adenoma fragments were counted after isolation and a total of 250-500 fragments were mixed with 100 μl of growth factor reduced-Matrigel and plated in 12- or 24-well plates. […]

WT organoids = assay: Interferon response of WT small intestine organoids (3D culture); assay type: cell-based, mouse
Protocol: as §1, §2

[1] = test system: serrated tumors of DKO^IEC mice; assay: TGF-βR1-specific inhibition experiment in DKO^IEC mice; assay type: in vivo, mouse
Protocol: For CD8+ T cell depletion (FIG. 4), 10-week-old LKO^IEC mice were injected intraperitoneally with 200 μg of anti-CD8 antibody (clone 2.43) or control IgG twice a week for 5 weeks until they were sacrificed. For the TGF-βR1-specific inhibition experiment, 10-week-old DKO^IEC mice were treated twice a day with a dose of 10 mg of galunisertib (Tauriello et al., 2018) per os for 6 weeks until they were sacrificed. Control mice were treated with vehicle. For checkpoint immunotherapy, either 10-week-old or 13-week-old DKO^IEC mice were injected intraperitoneally with a dose of 10 mg/kg (body mass) of anti-PD-L1 antibody (clone 6E11) twice a week for 3 weeks until they were sacrificed. For the combination therapy of anti-PD-L1 antibody and TGF-βR1-specific inhibitor, 23-week-old DKO^IEC mice were treated twice a day with a dose of 10 mg of galunisertib per os and injected intraperitoneally with a dose of 10 mg/kg (body mass) of anti-PD-L1 antibody twice a week for 3 weeks until they were sacrificed. Anti-PD-L1 antibody was provided by de Sauvage FJ (Genentech).
Organs were isolated, rinsed in ice-cold PBS, fixed in 10% neutral buffered formalin overnight at 4° C., dehydrated, and embedded in paraffin. Sections (5 μm) were stained with hematoxylin and eosin (H&E). For immunohistochemistry, sections were deparaffinized, rehydrated, and then treated for antigen retrieval. After blocking in Protein Block Serum-Free solutions (DAKO), tissues were incubated with primary antibody overnight at 4° C. followed by incubation with biotinylated secondary antibody. Endogenous peroxidase was quenched in 3% H2O2 in water for 10 min at room temperature. Antibodies were visualized with avidin/biotin complex (e.g., Vectastain Elite; Vector Laboratories) using diaminobenzidine as the chromagen. For immunofluorescence, fresh frozen organs were embedded in Tissue-Tek OCT compound (e.g., Sakura) and section of 10 μm were fixed in methanol, washed with PBS and then incubated with the primary antibodies. Washed sections were incubated with Alexa-conjugated secondary antibodies (e.g., Life Technologies) and examined with a Zeiss LSM 710 NLO Confocal Microscope. In situ hybridization for murine Ereg was carried out using RNAscope Multiplex Fluorescent Assay kit (Advanced Cell Diagnostics) following manufacturer's instructions. The probe corresponding to CDS region of murine Ereg (Accession #: NM_007950.2, probe region: 116-1496; Advanced Cell Diagnostics; Cat #: 437981). Cell death was analyzed using the In-Situ Cell Death Detection kit, TMR red (Thermo) for TUNEL. Masson's Trichrome staining was carried out following manufacturer's instructions (Sigma HT15-1KT).
Flow cytometry experiments were performed using fresh small intestinal tissue and organoid preparations. For the analyses of small intestinal tissue, a half part of duodenum, jejunum, and ileum was used for quantitative flow cytometry analysis of immune cell population of lamina propria. Briefly, small intestines were rinsed in cold PBS, minced into small pieces, incubated in HBSS with EDTA (5 mM) and digested with collagenase (0.05 mg/ml) for 30 min at 37° C., followed by a discontinuous Percoll separation method (40 and 75%) to purify immune cells. The cells concentrated at the interface were collected and washed in cold PBS. Red blood cells were removed with lysing buffer (BD Pharm Lyse) and live cells were counted using Trypan blue and then saturated with mouse Fc Block (purified anti-mouse CD16/CD32; 1:50; clone 2.4G2; BD Pharmingen) 30 min at 4° C. before incubating with specific dyed antibodies.
Total RNA from mouse tissues and cultured organoids was extracted using the TRIZOL reagent (e.g., Invitrogen) and the RNeasy Mini Kit (e.g., Qiagen), followed by DNase treatment. […]

[2] = 10-week-old DKO^IEC mice, 10 mg per os twice a day for 6 weeks
[3] = 10-week-old DKO^IEC mice, 6 weeks

Structure (SMILES) | expression of interferon-responsive genes Irf7, Oas1a, Isg15, and Cxcl10 (ZKO organoids) | expression of interferon-responsive genes Irf7, Oas1a, Isg15, and Cxcl10 (WT organoids; 3 μM for 24 hours then drug-free culture, qRT-PCR) | MHC class I long-chain H-2K^b on the surface (WT organoids; flow cytometry) | tumor load [1, 2] | tumor number [1, 2] | tumor size [1, 2] | incidence of invasive cancer [1, 3] | progression of SSA/P to the adenocarcinoma stage [1, 3] | proportion of PD-L1^+/CD45^+ cells infiltrating DKO^IEC tumors ([1]; CD45/PD-L1 staining) | collagen deposition ([1]; Masson's trichrome staining of small intestinal tumors) | proportion of Th17 cells in the tumors ([1]; flow cytometry) | proportion of CD8^+ T cells ([1]; flow cytometry, DKO^IEC tumors) | proportion of CD11b^+ myeloid cells ([1]; flow cytometry, DKO^IEC tumors) | proportion of Treg cells ([1]; flow cytometry, DKO^IEC tumors) | expression of TGF-β-responsive genes, such as Angpt12, Cdkn2b, Il11, and Ereg ([1]; qRT-PCR) | stromal phospho-SMAD2 ([1]; staining of small intestinal tumors)
Nc1ncn([C@H]2C[C@H](O)[C@@H](CO)O2)c(=O)n1 [5-AZA-CdR, 5-aza-2-deoxycytidine] | severely abrogated | robustly induced | upregulated | – | – | – | – | – | – | – | – | – | – | – | – | –
Cc1cccc(-c2nn3c(c2-c2ccnc4ccc(C(N)=O)cc24)CCC3)n1 [galunisertib] | – | – | – | did not reduce | did not reduce | did not reduce | especially reduced | suppressed | not affected | inhibition | reduction | did not significantly change | did not significantly change | did not significantly change | reduced expression | inhibition
